Data reported in patent US20090062214A1, “Left-Side Glucose Lipid a Analogue” (priority 2004, published 2009).
Read-outs that look alike come from different tables or passages of the source.

Tests used:
[1] = test system: TNFα production in human whole blood; assay: Test for inhibition against TNFα production in human whole blood (in vitro); format: cell-based
Experimental: This test was performed according to the method by Hartman et al. (D. A. Hartman, S. J. Ochalski and R. P. Carlson; The effects of antiinflammatory and antiallergic drugs on cytokine release after stimulation of human whole blood by lipopolysaccharide and zymosan A: Inflamm. Res., 44, 269 (1995)).
Peripheral blood was obtained from a healthy volunteer in the presence of heparin. 360 μL of whole blood was added to a 96-well block to which 20 μL of a dimethyl sulfoxide solution of the analyte compound was previously added. 20 μL of lipopolysaccharide (LPS) (derived from E. coli 026:B6 available from SIGMA Inc.) (final concentration: 10 ng/mL) was further added thereto as a stimulant, and the mixture was sufficiently mixed and incubated under conditions of 37° C. and 5% CO2 for 6 hours. After completion of the incubation, the mixture was cooled to 4° C. to discontinue the reaction, and the mixture was immediately centrifuged at 2000 rpm for 15 minutes. The supernatant plasma was then separated and collected. The TNFα produced and released in the plasma was measured by an enzyme-linked immunosorbent assay (ELISA) kit (made by Biosource International). The inhibition rate was determined from the amount of cytokine produced in the presence and in the absence of the analyte compound. IC50 values were calculated from the average of the inhibition rates by the least-square method. For comparison, an IC50 value was calculated in the same manner as in the case of the test compound, using a compound described in U.S. Pat. No. 5,935,938 as a comparative compound. The structural formula of the comparative compound is shown.
This test was performed in the same manner as in Test Example 1. The same comparative compound as in Test Example 1 was used.

TNFα production in mice = assay: Test for inhibitory activity against TNFα production in mice (in vivo); set-up: species or system C3H/HeN mice; settings: GalN.LPS, tail vein injection, plasma TNFα after an hour
Experimental: This test was performed according to the method by Y. Endo et al. (British Journal of Pharmacology 128, 5-12 (1999)).
(§1) A group of five C3H/HeN mice (male, 7-week old) known to be highly sensitive to lipopolysaccharide (LPS) was used. Galactosamine (GalN, 1 g/5 mL) and LPS (0.05 mg/5 mL) were each dissolved in normal saline, and they were mixed in equal amounts to prepare a GalN.LPS solution. The prepared GalN.LPS solution was injected into the tail vein in a dose of 10 mL/kg. The test compound was dissolved in a 0.1% aqueous triethylamine solution and the mixture was injected into the tail vein in a dose of 10 mL/kg substantially simultaneously with the injection of the GalN.LPS solution. […] The amount of TNFα produced in the plasma was measured using a commercially available TNFα ELISA kit. The inhibitory activity against TNFα production of the test compound was calculated as an inhibition rate against TNFα produced in response to the GalN.LPS injection. A regression line was obtained from the inhibition rates and the doses for the mice. The ID50 value (a dose at which the inhibition rate is 50%) was calculated from the regression line.

[2] = test system: mouse fatal state after GalN.LPS injection; assay: Survival test for mouse fatal state (in vivo); set-up: species or system C3H/HeN mice; settings: tail vein
Experimental: as §1
This test was performed according to the method by H. Takada (The Journal of Infectious Diseases 162, 428-434 (1990)).
Whether mice were alive or not was observed 72 hours after injection of a GalN.LPS solution, and the survival rate was calculated. The strain, age in week and gender of the mice used, the method of preparing the GalN.LPS solution and the compound solution administered, the administration route, the timing and the like were the same as in Test Example 3. A group of 8 mice was used in the test.

[3] = human whole blood, LPS 10 ng/mL, 6 hours, ELISA, Test Example 1, Table 1, read-out: IC50 (nM), inhibition of TNFα production

Structure (SMILES)	ID50 (mg/kg), inhibition of TNFα production (TNFα production in mice; Table 4)	ID50 (mg/kg), inhibition of TNFα production (TNFα production in mice; Table 5)	ID50 (mg/kg), inhibition of TNFα production (TNFα production in mice; Table 6)	Survival rate (%) of mice after 72 hours ([2]; dose 0.3 mg/kg, Table 7)	Survival rate (%) of mice after 72 hours ([2]; dose 0.3 mg/kg, Table 8)	Survival rate (%) of mice after 72 hours ([2]; dose 0.3 mg/kg, Table 9)	Survival rate (%) of mice after 72 hours ([2]; dose 1 mg/kg, Table 7)	Survival rate (%) of mice after 72 hours ([2]; dose 1 mg/kg, Table 8)	Survival rate (%) of mice after 72 hours ([2]; dose 1 mg/kg, Table 9)	Survival rate (%) of mice after 72 hours ([2]; dose 3 mg/kg, Table 7)	Survival rate (%) of mice after 72 hours ([2]; dose 3 mg/kg, Table 8)	Survival rate (%) of mice after 72 hours ([2]; dose 3 mg/kg, Table 9)	IC50 [1, 3]	also measured
CCCCCC/C=C\CCCCCCCCCC(=O)N[C@H]1[C@H](OC[C@H]2O[C@H](OP(=O)(O)O)[C@H](NC(=O)CC(=O)CCCCCCCCCCC)[C@@H](OCCCCCCCCCC)[C@@H]2O)O[C@H](COC)[C@@H](OP(=O)(O)O)[C@@H]1OCC[C@@H](CCCCCCC)OC [Comparative Compound, reference compound]	2.12 mg/kg	3.28 mg/kg	1.82 mg/kg	25%	50%	13%	63%	75%	0%	100%	50%	25%		IC50 ([1]; Homo sapiens, 6 h, read-out: IC50 (nM), inhibition of TNFα production, human whole blood, LPS 10 ng/mL, 6 hours, ELISA, Test Example 1, Table 1): 0.97 nM; IC50 ([1]; Homo sapiens, 6 h, read-out: IC50 (nM), inhibition of TNFα production, human whole blood, LPS 10 ng/mL, 6 hours, ELISA, Test Example 2, Table 2): 2.94 nM; IC50 ([1]; Homo sapiens, 6 h, read-out: IC50 (nM), inhibition of TNFα production, human whole blood, LPS 10 ng/mL, 6 hours, ELISA, Test Example 2, Table 3): 8.24 nM
CCCCCC/C=C\CCCCCCCCCC(=O)O[C@H]1[C@H](OC[C@H]2O[C@H](OP(=O)(O)O)[C@H](NC(=O)CC(=O)CCCCCCCCCCC)[C@@H](OCCCCCCCCCC)[C@@H]2O)O[C@H](COC)[C@@H](OP(=O)(O)O)[C@@H]1OCC[C@@H](CCCCCCC)OC [Compound 1, Phosphono 3-O-decyl-2-deoxy-6-O-{3-O-[(R)-3-methoxydecyl]-6-O-methyl-2-O-[(Z)-11-octadecenoyl]-4-O-phosphono-β-D-glucopyranosyl}-2-(3-oxotetradecanoylamino)-α-D-glucopyranoside]	0.45 mg/kg												0.49 nM	
CCCCCC/C=C\CCCCCCCCCCO[C@H]1[C@H](OC[C@H]2O[C@H](OP(=O)(O)O)[C@H](NC(=O)CC(=O)CCCCCCCCCCC)[C@@H](OCCCCCCCCCC)[C@@H]2O)O[C@H](COC)[C@@H](OP(=O)(O)O)[C@@H]1OCC[C@@H](CCCCCCC)OC [Compound 2, Phosphono 3-O-decyl-2-deoxy-6-O-{3-O-[(R)-3-methoxydecyl]-6-O-methyl-2-O-[(Z)-11-octadecenyl]-4-O-phosphono-β-D-glucopyranosyl}-2-(3-oxotetradecanoylamino)-α-D-glucopyranoside]	<0.2 mg/kg			38%			75%			100%			0.51 nM	
CCCCCC/C=C\CCCCCCCCCC(=O)O[C@H]1[C@H](OC[C@H]2O[C@H](OP(=O)(O)O)[C@H](NC(=O)CC(=O)CCCCCCCCCCC)[C@@H](OCCCCCCCCCC)[C@@H]2O)O[C@H](CO)[C@@H](OP(=O)(O)O)[C@@H]1OCC[C@@H](CCCCCCC)OC [Compound 3, Phosphono 3-O-decyl-2-deoxy-6-O-{3-O-[(R)-3-methoxydecyl]-2-O-[(Z)-11-octadecenoyl]-4-O-phosphono-β-D-glucopyranosyl}-2-(3-oxotetradecanoylamino)-α-D-glucopyranoside]	0.96 mg/kg			50%			100%			100%			0.65 nM	
CCCCCC/C=C\CCCCCCCCCC(=O)O[C@H]1[C@H](OC[C@H]2O[C@H](OP(=O)(O)O)[C@H](OC(=O)CC(=O)CCCCCCCCCCC)[C@@H](OCCCCCCCCCC)[C@@H]2O)O[C@H](COC)[C@@H](OP(=O)(O)O)[C@@H]1OCC[C@@H](CCCCCCC)OC [Compound 8, phosphono 3-O-decyl-6-O-{3-O-[(R)-3-methoxydecyl]-6-O-methyl-2-O-[(Z)-11-octadecenoyl]-4-O-phosphono-β-D-glucopyranosyl}-2-O-(3-oxotetradecanoyl)-α-D-glucopyranoside]		0.55 mg/kg			50%			75%			100%			IC50 ([1]; human whole blood, LPS 10 ng/mL, 6 hours, ELISA, Test Example 2, Table 2, read-out: IC50 (nM), inhibition of TNFα production): 0.06 nM
CCCCCC/C=C\CCCCCCCCCC(=O)O[C@H]1[C@H](OC[C@H]2O[C@H](OP(=O)(O)O)[C@H](OC(=O)CC(=O)CCCCCCCCCCC)[C@@H](OCCCCCCCCCC)[C@@H]2O)O[C@H](CO)[C@@H](OP(=O)(O)O)[C@@H]1OCC[C@@H](CCCCCCC)OC [Compound 9, Phosphono 3-O-decyl-6-O-{3-O-[(R)-3-methoxydecyl]-2-O-[(Z)-11-octadecenoyl]-4-O-phosphono-β-D-glucopyranosyl}-2-O-(3-oxotetradecanoyl)-α-D-glucopyranoside]			<0.2 mg/kg			13%			38%			100%		IC50 ([1]; human whole blood, LPS 10 ng/mL, 6 hours, ELISA, Test Example 2, Table 3, read-out: IC50 (nM), inhibition of TNFα production): 0.83 nM
